Results reported in patent publication US20260133203A1, “DETECTION OF FUMARATE-DERIVED MODIFICATION IN A TEST SAMPLE” (UNIVERSITY OF SOUTH CAROLINA, priority 2017, published 2026).
Counter-ions that a name gives are not always drawn.

Tests used:
primary rat astrocytes = test: LC-MS/MS identification of succinated proteins in primary rat astrocytes; assay type: cell-based; conditions: 24 hours treatment with up to 100 μM DMF
Experimental: Primary astrocytes were isolated and cultured from neonatal P1-P2 Sprague-Dawley rats. Animals were decapitated following which cortices, brainstem, and hippocampi were aseptically dissected in petri dishes filled with ice-cold Hanks' Balanced Salt Solution (Corning® HBSS; Sigma, St. Louis, MO), HEPES (10 mM; Sigma), and gentamicin sulfate (5 μg/mL; Life Technologies, Carlsbad, CA). The dissected tissue was cut into pieces and dissociated by trypsin treatment (10 μl/mL; Life Technologies, Carlsbad, CA), followed by trituration with sterile glass pipettes. Cells were plated in 24-well plates pre-coated with poly-l-lysine (50 μg/mL; Sigma). Cultures were maintained in DMEM/F12 (Life Technologies) medium supplemented with 10% fetal bovine serum (FBS) and stored in an incubator at 37° C. ([…]). […] After gel extraction, the peptides were re-suspended in 1% acetic acid and analyzed on a DionexTM […] system (Thermo ScientificTM, Rockford, IL) coupled to an Orbitrap Velos ProTM mass spectrometer (Thermo ScientificTM, Rockford, IL). […] The data-dependent acquisition (DDA) data were analyzed using Proteome DiscovererTM 1.4 software with SEQUEST search engine against the uniprot_ref_mouse database (2014-10-03 version, 52,474 proteins) or uniprot_ref_rat database (2011-5-11 version, 39765 proteins) with Xcorr>1 validation (+2) and an allowance for 2 missed cleavages. […]

[1] = test system: N1E-115 neuroblastoma cells differentiated to a neuronal phenotype; test: Western blot detection of succinated proteins with anti-2SC antibody after KOH hydrolysis of the ester; assay type: cell-based, mouse; conditions: DMF for 24 hours, hydrolysis of the ester in the presence of KOH
Experimental: N1E-115 cells (subclone N1E-115-1 neuroblastoma cells) were obtained from Sigma (08062511, St. Louis, MO). The cells were grown and expanded in non-differentiation medium (NDM): 90% DMEM (Gibco™, Grand Island, NY) with 25 mM glucose, no pyruvate, 25 mM HEPES, 4 mM glutamine and 10% fetal bovine serum (FBS, Atlanta Biologicals, Atlanta, GA). At 80% confluence, the cells were differentiated into neurons in the presence of 2% FBS and 1.25% dimethyl sulfoxide in DMEM for 5 days. In addition to the assessment of the neuronal phenotype by light microscopy, the detection of synaptophysin protein levels was used to confirm successful differentiation. During the final 6 or 24 hours of differentiation, the cells were treated with 10-100 µM DMF and harvested as described above for primary neurons, with the addition of phosphatase inhibitors to the DPBS washes and the RIPA buffer used for scraping to prevent dephosphorylation of CRMP-2. […] To ensure that the succinated proteins detected were solely of neuronal origin, N1E-115 neuroblastoma cells were differentiated to a neuronal phenotype (confirmed by increased synaptophysin content) and treated with DMF for 24 hours. […]

## COC(=O)/C=C/C(=O)OC [DMF, dimethyl fumarate]
Primary rat astrocytes
  number of succinated protein subunits detected: 11
[1]
  detection of succinated proteins using the anti-2SC antibody: detection of a large number of succinated proteins
